Experimental findings from patent US9562268B2, “Risk assessment for adverse drug reactions” (Academia Sinica, priority 2003, dated 2017) are described below.

Each structure is given as a SMILES string. Read-outs that look alike come from different tables or passages of the source.

Data set [1] has as its system HLA-Cw*0302. The note with it: human, in vivo. Here is the method: (§1) A total of 112 SJS/TEN patients were recruited either from Chang Gung Memorial Hospital or from several other medical centers throughout Taiwan. […] Drug taking history including dosage and duration, and the phenotypes of adverse drug reactions were recorded. The diagnostic criteria of clinical morphology were defined according to Roujeau (Roujeau J C, 1994). We define SJS as skin detachment of less than 10% of body-surface area, overlap SJS-TEN as skin detachment of 10-30%, and TEN as greater than 30%. SJS, overlap SJS-TEN and TEN are collectively referred to as SJS/TEN.
(§2) 73 tegretol-tolerant patients were included as controls. Volunteers from the general population of Taiwanese (n=94; age range: 20 to 80 years) were also recruited. The study was approved by the institutional review board, and informed consent was obtained.
(§3) Reagents for reverse lineblot sequence-specific oligonucleotide (SSO) were purchased from DYNAL Biotech Ltd. (Bromborough, UK) and used for HLA genotyping. Briefly, a PCR product was generated using biotinylated primer pairs for the second and the third exons of the HLA class I or class II loci, and then hybridized to a lineblot of SSO of probes immobilized on a nylon membrane. The presence of biotinylated PCR product bound to a specific probe is detected using streptavidin-horseradish peroxidase (HRP) and a chromogenic, soluble substrate to produce a blue “line” at the position of the positive probe. The probe reactivity pattern was interpreted by the genotyping software Dynal RELI™ SSO (DYNAL Biotech Ltd.; Bromborough, UK). Potential ambiguities were further resolved by sequence-based typing and DNA sequencing performed according to the IHWG Technical Manual (International Histocompatibility Working Group).

In data set [2] the test system is HLA-Cw*0801. The note with it: human, in vivo. Here is the method:
as §1, §2, §3

The subject of data set [3] is HLA-Cw*0806. Particulars: human, in vivo. The method, then: as §1, §2, §3
In data set [4] the test system is HLA-B*4601. The method, then:
as §1, §2, §3
Allele frequencies in the different groups were compared by the Chi-square method with Yates correction by constructing 2×2 tables. P values were corrected for comparisons of multiple HLA alleles (Pc) by multiplying the raw P values by the observed number of HLA alleles present within the loci. Odds ratios were calculated with Haldane's modification, which adds 0.5 to all cells to accommodate possible zero counts.

In data set [5] the test system is HLA-A*1101. The data set is described as follows: Equivalent genetic marker incidence in patients with ADRs: HLA-A*1101. The class given is in vivo, human. The note with it: SJS/TEN patients who received the drug. Here is the method: as §1, §2
(§4) Reagents for reverse lineblot sequence-specific oligonucleotide (SSO) were purchased from DYNAL Biotech Ltd. (Bromborough, UK) and used for HLA genotyping. […] The presence of biotinylated PCR product bound to a specific probe is detected using streptavidin-horseradish peroxidase (HRP) and a chromogenic, soluble substrate to produce a blue “line” at the position of the positive probe. […]

For data set [6], the system named is HLA-DRB1*1202. The data set is described as follows: Equivalent genetic marker incidence in patients with ADRs: HLA-DRB1*1202. The class given is in vivo, human. Particulars: SJS/TEN patients who received the drug. Here is the method:
as §1, §2, §4

Where [7] appears, read: patients with milder cutaneous reactions to the drug (n = 16).

Consider `Oc1ncnc2[nH]ncc12` [allopurinol], for which, in data set [1], the “HLA-Cw*0302 frequency” value turned out to be 82% and the “Number of patients carrying HLA-Cw*0302” value was determined as 14. Moreover, in data set [2], the “HLA-Cw*0801 frequency” value is reported as 11.7% and the “Number of patients carrying HLA-Cw*0801” value stood at 2. For the same compound, in data set [3], the “HLA-Cw*0806 frequency” value is on record as 0(0%) and the “Number of patients carrying HLA-Cw*0806” value is given as 0(0%).

As to `NC(=O)N1c2ccccc2C=Cc2ccccc21` [carbamazepine], in data set [4] (drug-tolerant group (n = 73)), the “HLA-B*4601 frequency” value is given as 26% and the “Number of patients carrying HLA-B*4601” value was 19. For the same compound, in data set [4] (setting [7]), the “HLA-B*4601 frequency” value is reported as 62.5% and the “Number of patients carrying HLA-B*4601” value stood at 10. Also, the “odds ratio, B*4601 associated drug-induced milder cutaneous ADRs” value in data set [4] (versus drug-tolerant group) worked out at 4.73. For the same compound, in data set [5], the “HLA-A*1101 frequency” value was 73.8% and the “Number of patients carrying HLA-A*1101” value is given as 31. Also, in data set [6], the “HLA-DRB1*1202 frequency” value is reported as 83.3% and the “Number of patients carrying HLA-DRB1*1202” value is on record as 35.
